The text below walks through data of patent US20160166604A1, “Thiol-Sensitive Positive Inotropes” (priority 2005, published 2016).

For one test, the target named is T1, RyR2 (Mus musculus, UniProt E9Q401).
T1 construct: endogenous in cells; host or cells: freshly isolated adult mouse cardiac myocytes
Description: Spontaneous Ca2+ sparks and spark frequency in intact murine myocytes. It counts as cell-based. How it is done:
Freshly isolated mouse cardiac myocytes were loaded with the Ca^2+ indicator fluo-4/AM (Molecular Probes, 20 μM for 30 min). Confocal images were acquired using a confocal laser-scanning microscope (LSM510, Carl Zeiss) with a Zeiss Plan-Neofluor 40× oil immersion objective (NA≈1.3). Fluo-4/AM was excited by an argon laser (488 nm), and fluorescence was measured at >505 nm. Images were taken in the line-scan mode, with the scan line parallel to the long axis of the myocytes. Each image consisted of 512 line scans obtained at 1.92 ms intervals, each comprising 512 pixels at 0.10 μm separation. Digital image analysis used customer-designed programs coded in Interactive Data language (IDL) and a modified spark detection algorithm. Cheng, H. et al., Biophys. J., 76, 606-617 (1999).
(§1) Nitroxyl (HNO) confers positive inotropy in vivo. Here, it was determined whether HNO action stems from a direct influence on sarcoplasmic reticulum (SR) Ca^2+ cycling, involving enhanced Ca^2+ release from ryanodine receptors (RyR2). Myocytes were isolated from ST mice, suspended in Tyrode's solution (1 mM Ca^2+) and field stimulated (0.5 Hz, 25° C.). Sarcomere shortening (SS) was assessed by real-time image analysis, Ca^2+ transients from Indo-1 fluorescence. RyR2 activity was determined by optical imaging of Ca^2+ release from single Ca^2+ release units. The HNO donor Angeli's Salt (AS) induced dose-dependent inotropy (SS: 73±31% at 0.5 mM; 131±31% at 1 mM; all n=15, p<0.05 vs. base; <0.1 mM: no effect). In contrast, the NO donor DEA/NO reduced SS by 55-65% at 5-50 μM (both p<0.05 vs. base), with no effect at higher doses. […] However, co-infusion with the thiol-donating compound N-acetyl-L-cysteine (NAC, 3 mM) abolished AS inotropy.

For another test, the target named is T2, SR Ca2+ pump (SERCA2a) (Mus musculus, UniProt O55143).
T2 construct: Crude cardiac microsomal vesicles containing fragmented sarcoplasmic reticulum (SR) were prepared; from tissue; host or cells: pooled hearts of C57 male mice (crude SR microsomal vesicles)
Description: ATP-dependent Ca2+ uptake by murine cardiac SR vesicles (stopped-flow, arsenazo III). Details: total Ca2+ uptake at equilibrium: unit not given here. The format is biochemical. How it is done: Crude cardiac microsomal vesicles containing fragmented sarcoplasmic reticulum (SR) were prepared as previously described for rat heart. Froehlich, J. P. et al., J. Mol. Cell. Cardiol., 10, 427-438 (1978). Pooled hearts from C57 male mice sacrificed by cervical dislocation were placed in 0.9% saline on ice, trimmed of atrial and connective tissue, and weighed. The finely minced heart muscle was homogenized in 10 mM NaHCO3 using a Polytron blender and the SR vesicles were separated from the myofilaments, mitochondria and nuclear membranes by differential centrifugation at 8,500 and 45,000×g. SR vesicles suspended in 0.25 M sucrose+10 mM MOPS, pH 7.0 were frozen and stored in liquid nitrogen prior to use. Twenty minutes prior to measuring Ca^2+ uptake, cardiac SR vesicles (1 mg/ml in storage buffer) were incubated with 250 μM AS delivered from a freshly-prepared 10 mM stock solution of AS (Na2N2O3) dissolved in 10 mM NaOH. […] Stopped-flow mixing was used to measure the initial time course of Ca^2+ accumulation by murine cardiac SR vesicles using the Ca^2+ indicator dye, arsenazo III. Membrane vesicles (0.4 mg/ml) suspended in a medium containing 100 mM KCl, 1 mM MgCl2, 50 μM arsenazo III, 5 mM sodium azide, and 20 mM MOPS, pH 7.4, were mixed with an equal volume of an identical medium containing 1 mM Na2ATP at 24° C. in a manually-operated stopped-flow apparatus (Applied Photophysics, Ltd.). The change in [Ca^2+] in the mixing cuvette was monitored using a single-beam UV-VIS spectrophotometer (AVIV, Model 14DS) with a monochromator setting of 650 nm. The total [Ca^2+] in the uptake medium was 0.5 μM, yielding a free [Ca^2+] in equilibrium with the Ca-arsenazo III complex of 0.2 μM (KA=3.3×10^4 M^−1). […] The time-dependent decrease in absorbance at 650 nm, reflecting Ca^2+ uptake by the SR vesicles, was monitored for 30-60 s at 0.1 s intervals. […] The signal change due to vesicle light scattering was evaluated from separate measurements conducted under identical conditions at the isosbestic wavelength of 693 nm. For evaluation of the time course of Ca^2+ uptake, a representative trace at 693 nm was subtracted from each of the individual traces at 650 nm acquired under identical conditions. The kinetic and thermodynamic parameters for Ca^2+ uptake were evaluated by fitting stopped-flow signals to one- and two-exponential decay functions plus a residual term using non-linear regression (Prism, Version 3.03). Residual plots of the difference between the fitted curve and data points were used to evaluate systematic errors in the fits and to calculate the sum-of-squares error used in selecting the best fit.
To test whether HNO directly enhances SR Ca^2+ uptake, its effects on SR membrane vesicles isolated from pooled C57/Bl6 mouse hearts were studied. Crude SR microsomal vesicles were incubated with 250 μM AS prior to measuring ATP-dependent Ca uptake by stopped-flow mixing at 24° C. Arsenazo III, a mid-range Ca indicator, was used to monitor Ca removal from the eravesicular compartment and buffer the free [Ca^2+] at a level producing half-saturation of the Ca^2+ pump (˜0.2 μM).

The next test concerns isolated mouse myocytes. The experiment in a line: SR Ca2+ stores by rapid caffeine infusion in mouse myocytes. It counts as cell-based. The conditions noted are these: 1 mM AS; caffeine alone 223±34; n=8. How it is done: as §1
The test system of test [1] is cardiac myocytes from WT and Gαq overexpressing FVB/N mice. Description: Sarcomere shortening in cardiac myocytes from WT and Gαq overexpressing mice. It counts as cell-based, mouse. Conditions: for increase in sarcomere shortening: Gαq myocytes. How it is done:
Cardiac myocytes were isolated from WT and Gαq overexpressing 2-6 month old FVB/N mice, suspended in Tyrode's solution (1 mM calcium) and field stimulated at 0.5 Hz at 23° C. Sarcomere shortening (SS) was assessed by real-time image analysis; data are presented at steady-state (10 minutes drug infusion).

Entries after “also recorded” stand apart in the source; their conditions may differ.

T1 sequence (E9Q401 whole entry): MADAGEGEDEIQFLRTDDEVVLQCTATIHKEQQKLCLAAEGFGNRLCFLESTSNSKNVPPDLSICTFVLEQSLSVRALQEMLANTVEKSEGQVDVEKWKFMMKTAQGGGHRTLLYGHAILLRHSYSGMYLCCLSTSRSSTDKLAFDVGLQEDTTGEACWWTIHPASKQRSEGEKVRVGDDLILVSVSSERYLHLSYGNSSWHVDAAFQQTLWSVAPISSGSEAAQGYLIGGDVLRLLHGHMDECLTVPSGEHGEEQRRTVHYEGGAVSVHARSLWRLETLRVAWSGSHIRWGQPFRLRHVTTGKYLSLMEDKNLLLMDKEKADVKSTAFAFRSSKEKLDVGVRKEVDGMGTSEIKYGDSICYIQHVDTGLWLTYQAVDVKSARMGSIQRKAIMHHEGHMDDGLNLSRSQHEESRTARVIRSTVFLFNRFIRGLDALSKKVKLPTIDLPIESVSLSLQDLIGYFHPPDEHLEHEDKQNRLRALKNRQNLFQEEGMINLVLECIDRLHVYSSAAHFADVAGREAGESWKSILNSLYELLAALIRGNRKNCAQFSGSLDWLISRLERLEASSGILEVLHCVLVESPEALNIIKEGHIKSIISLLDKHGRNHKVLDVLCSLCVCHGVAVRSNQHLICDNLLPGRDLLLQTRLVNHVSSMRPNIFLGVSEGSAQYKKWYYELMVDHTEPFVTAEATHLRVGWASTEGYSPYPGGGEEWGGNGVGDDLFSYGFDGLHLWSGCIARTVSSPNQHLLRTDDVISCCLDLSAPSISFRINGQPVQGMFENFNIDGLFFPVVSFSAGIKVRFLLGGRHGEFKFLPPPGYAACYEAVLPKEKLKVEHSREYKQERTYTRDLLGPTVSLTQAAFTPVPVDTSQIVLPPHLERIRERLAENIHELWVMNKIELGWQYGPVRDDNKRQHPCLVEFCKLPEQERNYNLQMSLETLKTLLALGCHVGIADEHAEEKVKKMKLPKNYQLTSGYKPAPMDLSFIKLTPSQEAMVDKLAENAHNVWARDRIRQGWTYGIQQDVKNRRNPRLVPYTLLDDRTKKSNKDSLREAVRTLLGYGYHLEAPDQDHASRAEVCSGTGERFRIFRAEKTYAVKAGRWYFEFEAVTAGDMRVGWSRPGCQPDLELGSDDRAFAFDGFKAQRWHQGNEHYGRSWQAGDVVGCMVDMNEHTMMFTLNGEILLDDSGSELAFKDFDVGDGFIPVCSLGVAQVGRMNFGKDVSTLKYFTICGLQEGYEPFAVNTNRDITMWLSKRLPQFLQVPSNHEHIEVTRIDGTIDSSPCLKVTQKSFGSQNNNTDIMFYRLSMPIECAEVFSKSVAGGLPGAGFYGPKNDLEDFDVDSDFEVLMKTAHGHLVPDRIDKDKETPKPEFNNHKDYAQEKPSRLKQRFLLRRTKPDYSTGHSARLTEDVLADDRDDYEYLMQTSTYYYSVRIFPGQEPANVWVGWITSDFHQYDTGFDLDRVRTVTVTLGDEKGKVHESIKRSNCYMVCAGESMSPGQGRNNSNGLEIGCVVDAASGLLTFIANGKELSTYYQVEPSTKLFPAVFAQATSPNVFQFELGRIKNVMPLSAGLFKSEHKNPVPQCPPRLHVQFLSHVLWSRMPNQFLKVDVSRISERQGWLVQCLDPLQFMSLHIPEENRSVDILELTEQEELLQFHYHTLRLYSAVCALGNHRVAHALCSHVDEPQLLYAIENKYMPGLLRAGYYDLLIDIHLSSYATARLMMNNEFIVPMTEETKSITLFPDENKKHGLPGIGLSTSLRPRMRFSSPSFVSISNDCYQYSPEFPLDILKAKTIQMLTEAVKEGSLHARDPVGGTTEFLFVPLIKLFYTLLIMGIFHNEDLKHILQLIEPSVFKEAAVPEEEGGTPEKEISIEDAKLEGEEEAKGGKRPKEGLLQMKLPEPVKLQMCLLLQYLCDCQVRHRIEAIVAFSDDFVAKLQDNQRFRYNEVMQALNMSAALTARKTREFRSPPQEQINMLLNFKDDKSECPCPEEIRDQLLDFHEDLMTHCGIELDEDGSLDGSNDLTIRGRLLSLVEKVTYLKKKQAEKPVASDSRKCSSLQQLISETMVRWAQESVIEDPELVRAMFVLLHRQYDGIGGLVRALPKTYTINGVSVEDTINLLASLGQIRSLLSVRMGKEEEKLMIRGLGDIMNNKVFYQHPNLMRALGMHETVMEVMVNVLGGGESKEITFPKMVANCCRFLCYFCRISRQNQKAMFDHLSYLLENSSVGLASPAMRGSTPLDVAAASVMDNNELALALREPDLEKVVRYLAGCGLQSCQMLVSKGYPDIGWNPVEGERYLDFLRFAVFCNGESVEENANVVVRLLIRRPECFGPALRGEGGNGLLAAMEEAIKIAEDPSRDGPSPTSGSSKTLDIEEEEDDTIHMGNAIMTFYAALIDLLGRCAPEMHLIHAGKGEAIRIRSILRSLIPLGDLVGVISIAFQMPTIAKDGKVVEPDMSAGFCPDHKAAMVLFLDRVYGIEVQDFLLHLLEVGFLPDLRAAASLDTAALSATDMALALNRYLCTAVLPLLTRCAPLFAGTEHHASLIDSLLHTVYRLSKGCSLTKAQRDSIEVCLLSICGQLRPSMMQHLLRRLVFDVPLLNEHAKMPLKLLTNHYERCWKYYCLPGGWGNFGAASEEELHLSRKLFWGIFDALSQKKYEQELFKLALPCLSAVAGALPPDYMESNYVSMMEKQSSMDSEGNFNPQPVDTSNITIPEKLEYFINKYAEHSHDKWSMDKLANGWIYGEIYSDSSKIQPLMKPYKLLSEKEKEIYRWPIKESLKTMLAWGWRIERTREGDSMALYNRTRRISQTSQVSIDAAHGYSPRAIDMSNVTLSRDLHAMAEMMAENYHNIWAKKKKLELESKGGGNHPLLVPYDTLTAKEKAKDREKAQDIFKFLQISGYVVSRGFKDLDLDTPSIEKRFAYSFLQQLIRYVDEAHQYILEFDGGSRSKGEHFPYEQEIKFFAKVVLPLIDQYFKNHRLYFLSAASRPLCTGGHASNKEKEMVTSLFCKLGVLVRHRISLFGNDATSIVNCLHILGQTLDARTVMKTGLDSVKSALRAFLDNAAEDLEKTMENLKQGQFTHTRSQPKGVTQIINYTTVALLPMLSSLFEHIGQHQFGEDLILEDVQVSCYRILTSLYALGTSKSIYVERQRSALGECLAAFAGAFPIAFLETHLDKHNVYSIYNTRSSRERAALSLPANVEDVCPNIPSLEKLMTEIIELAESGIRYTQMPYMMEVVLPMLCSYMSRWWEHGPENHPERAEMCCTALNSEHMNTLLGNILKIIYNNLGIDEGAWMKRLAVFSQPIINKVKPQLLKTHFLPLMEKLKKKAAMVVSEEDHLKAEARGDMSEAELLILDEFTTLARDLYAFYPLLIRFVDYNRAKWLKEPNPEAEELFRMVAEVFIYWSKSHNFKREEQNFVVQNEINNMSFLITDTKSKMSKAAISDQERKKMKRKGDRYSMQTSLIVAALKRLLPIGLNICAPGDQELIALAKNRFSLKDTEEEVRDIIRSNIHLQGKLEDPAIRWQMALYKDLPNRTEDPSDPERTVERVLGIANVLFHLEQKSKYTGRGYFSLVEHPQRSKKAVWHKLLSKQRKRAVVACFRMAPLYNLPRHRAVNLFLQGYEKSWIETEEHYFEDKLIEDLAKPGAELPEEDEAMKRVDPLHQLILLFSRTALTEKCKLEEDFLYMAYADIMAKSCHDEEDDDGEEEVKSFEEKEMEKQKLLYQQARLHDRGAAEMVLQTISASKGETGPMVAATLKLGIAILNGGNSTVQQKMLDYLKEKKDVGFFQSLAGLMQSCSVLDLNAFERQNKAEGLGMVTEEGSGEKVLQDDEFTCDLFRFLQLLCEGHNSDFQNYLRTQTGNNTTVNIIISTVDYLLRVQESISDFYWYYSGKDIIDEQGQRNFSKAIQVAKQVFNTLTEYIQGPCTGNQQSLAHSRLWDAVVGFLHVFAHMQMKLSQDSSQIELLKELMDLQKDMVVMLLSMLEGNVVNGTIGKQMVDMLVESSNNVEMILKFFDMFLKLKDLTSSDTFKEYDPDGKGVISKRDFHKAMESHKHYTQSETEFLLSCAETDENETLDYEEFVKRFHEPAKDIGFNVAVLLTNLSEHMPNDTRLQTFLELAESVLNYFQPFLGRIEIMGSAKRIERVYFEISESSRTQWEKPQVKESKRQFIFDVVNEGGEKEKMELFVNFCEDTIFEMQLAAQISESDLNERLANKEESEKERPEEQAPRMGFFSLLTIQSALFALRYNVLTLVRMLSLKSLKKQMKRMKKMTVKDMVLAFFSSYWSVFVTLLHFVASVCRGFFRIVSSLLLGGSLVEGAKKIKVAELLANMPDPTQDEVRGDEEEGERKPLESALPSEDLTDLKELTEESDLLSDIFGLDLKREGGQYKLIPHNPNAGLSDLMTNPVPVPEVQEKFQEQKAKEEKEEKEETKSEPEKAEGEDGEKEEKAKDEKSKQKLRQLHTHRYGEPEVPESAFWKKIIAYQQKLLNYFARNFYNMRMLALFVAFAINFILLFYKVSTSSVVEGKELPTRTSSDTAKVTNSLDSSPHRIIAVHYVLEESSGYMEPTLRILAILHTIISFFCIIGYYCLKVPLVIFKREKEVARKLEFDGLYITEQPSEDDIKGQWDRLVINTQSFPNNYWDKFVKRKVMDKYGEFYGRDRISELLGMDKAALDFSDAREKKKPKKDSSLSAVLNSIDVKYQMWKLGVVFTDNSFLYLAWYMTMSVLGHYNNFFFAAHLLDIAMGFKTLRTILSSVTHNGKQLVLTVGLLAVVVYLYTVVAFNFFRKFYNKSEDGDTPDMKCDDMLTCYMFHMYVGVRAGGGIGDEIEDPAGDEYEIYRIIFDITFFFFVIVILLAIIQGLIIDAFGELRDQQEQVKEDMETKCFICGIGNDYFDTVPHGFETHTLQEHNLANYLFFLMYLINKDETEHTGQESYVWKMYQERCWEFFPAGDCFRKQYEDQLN

As for `[Na+].[Na+].[O-][N+]([O-])=NO` [AS, Angeli's salt], on RyR2 (0.5 mM AS), the “calcium spark frequency relative to controls” value is approximately 7 times and the “increase of calcium spark frequency” value is given as 7 fold. At RyR2 (0.5 mM AS, controls 4±1), the “frequency of calcium sparks (CSF)” value worked out at 26±3 sparks/100 μm/s. Further, the “rise in Ca2+ spark frequency” value at RyR2 (1 mM AS, n=10-24) was 18 fold. On RyR2 (AS), the “individual spark amplitude, rise time and spatial width” value was “unaltered”. On RyR2 (reduced glutathione preincubation before AS), the “AS-induced increase in spark frequency after thiol (GSH) pre-treatment” value was “prevented; also recorded: abrogated”. At SR Ca2+ pump (SERCA2a) (250 μM AS, 0.2 μM free Ca2+, 24° C., n=6), the “increase of rate constant for Ca2+ uptake” value was determined as 104%. Moreover, the “rate constant for Ca2+ uptake” value at SR Ca2+ pump (SERCA2a) (250 μM AS, without AS 0.1563) stood at 0.3204 s⁻¹. At SR Ca2+ pump (SERCA2a) (AS 250 μM), the “rate of initial Ca2+ uptake” value is “enhanced”. Moreover, the “total Ca2+ uptake at equilibrium” value on SR Ca2+ pump (SERCA2a) (after AS exposure, before 0.00257±0.0003, p=NS) came to 0.00202±0.000. Also, the “SR Ca2+ uptake activity after AS solution decayed completely to products” value at SR Ca2+ pump (SERCA2a) (decayed AS test solution (e.g. nitrite)) was “No stimulation”. The “SR Ca2+ stores (% [Ca2+]i on caffeine)” value in the test with isolated mouse myocytes turned out to be 138±17%. Further, the “positive inotropic effect in Gαq myocytes compared with WT cells” value in test [1] (AS infusion) is recorded as “not significantly different”. Besides, the “increase in sarcomere shortening” value in test [1] (AS 250 μM) worked out at 22±11%. Moreover, the “increase in sarcomere shortening” value in test [1] (AS 500 μM) amounted to 40±11%.
